# From paper PMC10108353, “Design and Pharmacological Characterization of α4β1 Integrin Cyclopeptide Agonists: Computational Investigation of Ligand Determinants for Agonism versus Antagonism” (Journal of Medicinal Chemistry, 2023)
# How the values were obtained:
# α4β1 integrin [1] = target: T1, α4β1 integrin (Homo sapiens, UniProt P05556+P13612); assay: Competitive solid-phase binding assay, purified α4β1 / FN; parameters: purchased R&D Systems; conditions: mean ± SD, three experiments in triplicate, read-out: Binding affinity IC50, α4β1/FN
# Procedure: (§1) For the evaluation of binding affinity to purified α4β1, αMβ2, and α4β7 integrins, competitive solid-phase ligand binding assays were performed as follows. […] Afterward, each well was washed and blocked for 1 h at RT. Purified integrins (α4β1: 0.5 μg/mL; α4β7: 0.5 μg/mL; αMβ2: 0.5 μg/mL; R&D Systems) were preincubated with serial dilutions of new compounds (10^–4 – 10^–10 M) for 30 min at RT and then plated into coated wells for 1 h at RT. After two washes, primary antibody (for α4β1 and α4β7: rabbit anti-α4, Abcam, 1:100 dilution; for αMβ2: rabbit anti-αM, Abcam, 1:100 dilution) was added and incubated for 1 h at RT. The plate was washed twice and then was incubated with anti-rabbit AlexaFluor488 secondary antibody (1:400 dilution, ThermoFischer Scientific) for 1 h at RT. After washing three times, fluorescence was measured as described in the previous section.
# αMβ2 integrin = αMβ2 integrin (Homo sapiens, UniProt P05107+P11215); assay: HL60 cell adhesion to fibrinogen (Fg); type: cell-based; conditions: read-out: IC50 for antagonists, Fg/HL60 αMβ2
# From the text: (§2) mediated Jurkat cell adhesion to FN.
# α4β1 integrin [2] = target: T1, α4β1 integrin; assay: Competitive solid-phase binding assay, purified α4β1 / VCAM-1; parameters: purchased R&D Systems; conditions: read-out: Binding affinity IC50, α4β1/VCAM-1
# Procedure: as §1
# α4β7 integrin = target: T2, α4β7 integrin (Homo sapiens, UniProt P13612+P26010); assay: cell-based; type: cell-based; conditions: for IC50: reduction of cell adhesion, >5000 = inactive compounds (IC50/EC50), read-out: IC50 for antagonists, MAdCAM-1/RPMI8866 α4β7
# T2 construct: RPMI8866 cells expressing α4β7 integrin to the ligand MAdCAM-1; endogenous in cells; host or cells: RPMI8866
# T2 sequence (P13612 34-1032): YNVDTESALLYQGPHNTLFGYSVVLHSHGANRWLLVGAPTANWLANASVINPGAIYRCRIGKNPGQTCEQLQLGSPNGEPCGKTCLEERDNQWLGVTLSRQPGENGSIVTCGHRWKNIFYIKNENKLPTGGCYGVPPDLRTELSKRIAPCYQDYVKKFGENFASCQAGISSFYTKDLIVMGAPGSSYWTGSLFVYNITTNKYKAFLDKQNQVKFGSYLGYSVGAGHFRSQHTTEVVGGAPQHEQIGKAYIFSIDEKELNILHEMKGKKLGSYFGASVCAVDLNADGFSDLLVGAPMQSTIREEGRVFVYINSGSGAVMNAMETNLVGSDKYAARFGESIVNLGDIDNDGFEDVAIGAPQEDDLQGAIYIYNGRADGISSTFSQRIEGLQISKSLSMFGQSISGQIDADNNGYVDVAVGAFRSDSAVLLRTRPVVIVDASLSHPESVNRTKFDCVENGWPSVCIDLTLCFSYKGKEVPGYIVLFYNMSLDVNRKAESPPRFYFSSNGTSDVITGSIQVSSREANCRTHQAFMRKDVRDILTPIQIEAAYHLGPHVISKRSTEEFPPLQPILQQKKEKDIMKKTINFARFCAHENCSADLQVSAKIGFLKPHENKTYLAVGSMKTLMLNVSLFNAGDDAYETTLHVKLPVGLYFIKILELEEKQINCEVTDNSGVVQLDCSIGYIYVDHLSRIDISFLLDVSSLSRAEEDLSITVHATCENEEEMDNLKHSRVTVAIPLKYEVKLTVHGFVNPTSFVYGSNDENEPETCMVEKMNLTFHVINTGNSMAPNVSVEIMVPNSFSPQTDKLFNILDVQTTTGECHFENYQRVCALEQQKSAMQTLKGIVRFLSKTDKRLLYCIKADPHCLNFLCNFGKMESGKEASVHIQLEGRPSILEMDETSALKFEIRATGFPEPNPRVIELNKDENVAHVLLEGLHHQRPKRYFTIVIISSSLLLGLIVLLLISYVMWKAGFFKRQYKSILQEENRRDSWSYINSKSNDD
# T2 sequence (P26010 20-798): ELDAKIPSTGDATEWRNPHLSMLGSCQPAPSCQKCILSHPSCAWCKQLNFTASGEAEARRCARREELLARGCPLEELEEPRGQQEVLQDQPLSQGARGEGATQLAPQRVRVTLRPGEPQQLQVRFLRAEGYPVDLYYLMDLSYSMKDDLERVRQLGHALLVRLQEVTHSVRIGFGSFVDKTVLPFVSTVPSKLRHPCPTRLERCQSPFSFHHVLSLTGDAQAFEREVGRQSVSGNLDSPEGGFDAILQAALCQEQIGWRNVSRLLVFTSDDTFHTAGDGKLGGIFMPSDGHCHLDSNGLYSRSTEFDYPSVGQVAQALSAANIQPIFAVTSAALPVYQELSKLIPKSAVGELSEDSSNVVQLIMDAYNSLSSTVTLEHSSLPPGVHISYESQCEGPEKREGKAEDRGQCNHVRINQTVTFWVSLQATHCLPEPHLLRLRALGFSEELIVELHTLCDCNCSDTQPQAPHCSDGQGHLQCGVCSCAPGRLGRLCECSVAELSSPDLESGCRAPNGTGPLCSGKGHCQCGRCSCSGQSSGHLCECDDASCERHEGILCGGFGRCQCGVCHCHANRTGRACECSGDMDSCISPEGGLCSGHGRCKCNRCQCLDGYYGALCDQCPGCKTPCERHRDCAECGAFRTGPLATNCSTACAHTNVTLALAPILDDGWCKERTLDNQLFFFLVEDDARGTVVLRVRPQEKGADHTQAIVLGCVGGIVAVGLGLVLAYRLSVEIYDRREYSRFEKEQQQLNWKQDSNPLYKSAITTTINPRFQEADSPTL
# From the text: as §2
# T1 sequence (P05556 21-728 limits assumed, one chain of several): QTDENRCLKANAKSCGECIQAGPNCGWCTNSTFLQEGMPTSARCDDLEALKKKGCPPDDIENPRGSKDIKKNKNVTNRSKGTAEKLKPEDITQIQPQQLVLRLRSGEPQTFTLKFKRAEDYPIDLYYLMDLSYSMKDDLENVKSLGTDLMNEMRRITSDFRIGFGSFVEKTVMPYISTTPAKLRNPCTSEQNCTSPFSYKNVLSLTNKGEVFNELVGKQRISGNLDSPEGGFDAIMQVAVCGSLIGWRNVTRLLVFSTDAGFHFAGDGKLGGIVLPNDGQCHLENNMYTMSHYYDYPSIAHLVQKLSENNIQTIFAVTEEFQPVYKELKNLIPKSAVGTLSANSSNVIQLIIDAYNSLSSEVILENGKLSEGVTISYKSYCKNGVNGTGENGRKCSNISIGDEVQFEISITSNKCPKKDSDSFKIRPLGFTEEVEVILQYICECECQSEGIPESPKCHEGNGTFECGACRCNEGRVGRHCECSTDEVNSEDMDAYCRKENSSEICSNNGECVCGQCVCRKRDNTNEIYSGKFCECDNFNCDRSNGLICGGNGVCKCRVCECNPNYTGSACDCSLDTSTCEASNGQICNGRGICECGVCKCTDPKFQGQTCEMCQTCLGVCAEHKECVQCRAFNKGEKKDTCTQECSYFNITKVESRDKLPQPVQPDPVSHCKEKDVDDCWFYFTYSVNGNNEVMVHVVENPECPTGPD
# Chain of αMβ2 integrin (P05107 23-769, other chains not shown): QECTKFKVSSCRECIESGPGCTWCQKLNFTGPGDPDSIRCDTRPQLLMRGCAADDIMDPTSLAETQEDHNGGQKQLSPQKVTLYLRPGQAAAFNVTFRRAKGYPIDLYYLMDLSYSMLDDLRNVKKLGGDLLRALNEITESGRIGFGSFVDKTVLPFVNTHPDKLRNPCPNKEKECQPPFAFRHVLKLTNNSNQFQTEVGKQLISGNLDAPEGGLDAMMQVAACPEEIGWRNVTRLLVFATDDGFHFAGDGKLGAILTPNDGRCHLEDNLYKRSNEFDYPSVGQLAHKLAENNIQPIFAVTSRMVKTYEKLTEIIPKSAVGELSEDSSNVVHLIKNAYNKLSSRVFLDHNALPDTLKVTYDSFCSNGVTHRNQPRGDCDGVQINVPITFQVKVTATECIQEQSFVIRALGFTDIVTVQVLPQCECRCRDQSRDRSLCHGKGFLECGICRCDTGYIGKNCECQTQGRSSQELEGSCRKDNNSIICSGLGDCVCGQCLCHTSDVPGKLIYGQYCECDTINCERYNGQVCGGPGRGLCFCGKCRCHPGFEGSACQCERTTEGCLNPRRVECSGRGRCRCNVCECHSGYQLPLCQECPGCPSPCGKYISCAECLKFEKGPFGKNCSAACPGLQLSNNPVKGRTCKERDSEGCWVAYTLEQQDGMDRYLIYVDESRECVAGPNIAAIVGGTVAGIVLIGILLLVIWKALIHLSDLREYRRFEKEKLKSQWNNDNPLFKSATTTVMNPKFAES
Structure (SMILES),IC50 (α4β1 integrin [1]) [µM],IC50 (αMβ2 integrin) [µM],IC50 (α4β1 integrin [2]) [µM],IC50 (α4β7 integrin) [µM],"agonist or antagonist behaviour, MAdCAM-1/RPMI8866 α4β7 (α4β7 integrin; agonist = adhesion index >1, antagonist = adhesion index <1)"
Cc1ccccc1NC(=O)N1C(=O)CC1CC(=O)NCC(=O)O (stereo not drawn) [1b],> 5,> 5,> 5,> 5,
Cc1ccccc1NC(=O)N1C(=O)CC1CC(=O)O (stereo not drawn) [1a],0.0133 ± 0.0063,> 5,0.0101 ± 0.0049,> 5,inactive
